SMILES | melting point
CCOC(=O)c1cc(NCc2c(C)cccc2CC)c2nc(C)n(C)c2c1 [Example 27, Ethyl 4-(2-ethyl-6-methyl-benzylamino)-1,2-dimethyl-1H-benzimidazole-6-carboxylate] | 171 to 173 °C
CCOC(=O)c1cc(NCc2c(C)cccc2CC)c2nc(COC)n(C)c2c1 [Example 29, Ethyl 4-(2-ethyl-6-methyl-benzylamino)-2-methoxymethyl-1-methyl-1H-benzimidazole-6-carboxylate] | 106 to 107 °C
CCc1cccc(C)c1CNc1cc(C(=O)O)cc2c1nc(C)n2C [Example 31, 4-(2-Ethyl-6-methyl-benzylamino)-1,2-dimethyl-1H-benzimidazole-6-carboxylic Acid] | 312 to 314 °C
CCc1cccc(C)c1CNc1cc(C(=O)O)cc2c1nc(COC)n2C [Example 33, 4-(2-Ethyl-6-methyl-benzylamino)-2-methoxymethyl-1-methyl-1H-benzimidazole-6-carboxylic Acid] | 275 to 278 °C
COCc1nc2c(NCc3c(C)cccc3C)cc(C(=O)NCCO)cc2n1C [Example 37, 4-(2,6-Dimethyl-benzylamino)-6-(2-hydroxyethyl-aminocarbonyl)-2-methoxymethyl-1-methyl-1H-benzimidazole] | 186 to 187 °C
CCc1cccc(C)c1CNc1cc(C(=O)N(C)C)cc2c1nc(C)n2COCc1ccccc1.O=C(O)C(=O)O [Example 48, 1-Benzyloxymethyl-6-(N,N-dimethylaminocarbonyl)-4-(2-ethyl-6-methyl-benzylamino)-2-methyl-1H-benzimidazole Oxalate] | 168 to 169 °C
CCOC(=O)c1cc(OCc2ccccc2)c2nc(C)n(C)c2c1 [Example 52, Ethyl 4-benzyloxy-1,2-dimethyl-1H-benzimidazole-6-carboxylate] | 152 °C
COC(=O)c1cc(OCc2ccccc2)c2nc(C)n(C)c2c1 [Example 53, Methyl 4-benzyloxy-1,2-dimethyl-1H-benzimidazole-6-carboxylate] | 166 °C
Cc1cccc(C)c1CNc1cc(CO)cc2c1nc(C)n2C [Example 58, 4-(2,6-Dimethyl-benzylamino)-6-hydroxymethyl-1,2-dimethyl-1H-benzimidazole] | 245 to 246 °C
Cc1coc(C)c1N(C)c1cc(C(=O)N(C)C)cc2c1nc(C)n2C [Example 62, 6-(N,N-Dimethylaminocarbonyl)-4-(2,4-dimethyl-furan-3-yl-methylamino)-1,2-dimethyl-1H-benzimidazole] | 163 to 164 °C
CCOC(=O)c1cc(NCc2c(C)cccc2C)c2nc(C)n(COCc3ccccc3)c2c1 [Example 64, Ethyl1-benzyloxymethyl-4-(2,6-dimethyl-benzylamino)-2-methyl-1H-benzimidazole-6-carboxylate] | 155 to 156 °C
CNC(=O)c1cc(NCc2c(C)cccc2C)c2nc(C)[nH]c2c1 [Example 69, 4-(2,6-Dimethyl-benzylamino)-6-(N-methylaminocarbonyl)-2-methyl-1H-benzimidazole] | 298 °C
Cc1cccc(C)c1CNc1cc(C2=NCCN2)cc2c1nc(C)n2C [Example 72, 6-(4,5-Dihydro-1H-imidazol-2-yl)-4-(2,6-dimethyl-benzylamino)-1,2-dimethyl-1H-benzimidazole] | 273 to 274 °C
Cc1cccc(C)c1CNc1cc(C2=NCCN2C)cc2c1nc(C)n2C [Example 73, 6-(4,5-Dihydro-1-methyl-1H-imidazol-2-yl)-4-(2,6-dimethyl-benzylamino)-1,2-dimethyl-1H-benzimidazole] | 118 to 119 °C
Cc1cccc(C)c1CNc1cc(C2=NCCO2)cc2c1nc(C)n2C [Example 74, 6-(4,5-Dihydro-oxazol-2-yl)-4-(2,6-dimethyl-benzylamino)-1,2-dimethyl-1H-benzimidazole] | 235 °C
CC(=O)OCc1nc2c(NCc3c(C)cccc3C)cc(Br)cc2n1C [Example 81, 2-Acetoxymethyl-6-bromo-4-(2,6-dimethyl-benzylamino)-1-methyl-1H-benzimidazole] | 188 to 190 °C
Cc1nnc(-c2cc(NCc3c(C)cccc3C)c3nc(C)n(C)c3c2)o1 [Example 85, 4-(2,6-Dimethyl-benzylamino)-6-(5-methyl-[1,3,4]oxadiazol-2yl)-1,2-dimethyl-1H-benzimidazole] | 256 to 257 °C

Further lines, results first:

melting point | SMILES
180 °C | Cc1cccc(C)c1COc1cc(C(=O)N(C)C)cc2c1nc(C)n2C [Example 9, 6-(N,N-Dimethylaminocarbonyl)-4-(2,6-dimethyl-benzyloxy)-1,2-dimethyl-1H-benzimidazole]
190 °C | CCOC(=O)c1cc(NCc2c(C)cccc2C)c2nc(C)n(C)c2c1 [Example 28, Ethyl 4-(2,6-dimethyl-benzylamino)-1,2-dimethyl-1H-benzimidazole-6-carboxylate]
134 to 135 °C | CCOC(=O)c1cc(NCc2c(C)cccc2C)c2nc(COC)n(C)c2c1 [Example 30, Ethyl 4-(2,6-dimethyl-benzylamino)-2-methoxymethyl-1-methyl-1H-benzimidazole-6-carboxylate]
315 to 318 °C | Cc1cccc(C)c1CNc1cc(C(=O)O)cc2c1nc(C)n2C [Example 32, 4-(2,6-Dimethyl-benzylamino)-1,2-dimethyl-1H-benzimidazole-6-carboxylic Acid]
269 to 272 °C | COCc1nc2c(NCc3c(C)cccc3C)cc(C(=O)O)cc2n1C [Example 34, 4-(2,6-Dimethyl-benzylamino)-2-methoxymethyl-1-methyl-1H-benzimidazole-6-carboxylic Acid]
259 to 260 °C | Cc1cccc(C)c1CNc1cc(C(=O)NCCO)cc2c1nc(C)n2C [Example 36, 4-(2,6-Dimethyl-benzylamino)-6-(2-hydroxyethyl-aminocarbonyl)-1,2-dimethyl-1H-benzimidazole]
272 °C | Cc1cccc(C)c1CNc1cc(C(N)=O)cc2c1nc(C)n2C [Example 39, 4-(2,6-Dimethyl-benzylamino)-1,2-dimethyl-1H-benzimidazole-6-carboxamide]
193 to 195 °C | COC(=O)Nc1cccc(C)c1CNc1cc(C(=O)N(C)C)cc2c1nc(C)n2C [Example 50, 6-(N,N-Dimethylaminocarbonyl)-4-(2-methoxycarbonylamino-6-methyl-benzylamino)-1,2-dimethyl-1H-benzimidazole]
201 to 202 °C | Cc1cccc(C)c1CNc1cc(C(=O)N2CC2)cc2c1nc(C)n2C [Example 54, 6-(1-Aziridinylcarbonyl)-4-(2,6-dimethyl-benzylamino)-1,2-dimethyl-1H-benzimidazole]
177 to 178 °C | Cc1cccc(C)c1CNc1cc(C(=O)N(C)CCO)cc2c1nc(C)n2C [Example 56, 4-(2,6-Dimethyl-benzylamino)-6-(N-2-hydroxyethyl-N-methylaminocarbonyl)-1,2-dimethyl-1H-benzimidazole]
277 to 278 °C | Cc1cccc(C)c1CNc1cc(C(=O)NN)cc2c1nc(C)n2C [Example 57, 4-(2,6-Dimethyl-benzylamino)-1,2-dimethyl-1H-benzimidazole-6-carboxylic acid hydrazide]
158 to 159 °C | Cc1ccccc1CNc1cc(C(=O)N(C)C)cc2c1nc(C)n2C [Example 61, 6-(N,N-Dimethylaminocarbonyl)-1,2-dimethyl-4-(2-methyl-benzylamino)-1H-benzimidazole]
237 to 238 °C | Cc1cccc(C)c1CNc1cc(S(=O)(=O)N(C)C)cc2c1nc(C)n2C [Example 63, 7-(2,6-Dimethyl-benzylamino)-2,3-dimethyl-3H-benzimidazole-5-sulfonic acid dimethylamide]
55 to 56 °C | Cc1cccc(C)c1CNc1cc(C(=O)N(C)C)cc2c1nc(C)n2COCc1ccccc1 [Example 66, 1-Benzyloxymethyl-6-(N,N-dimethylaminocarbonyl)-4-(2,6-dimethyl-benzylamino)-2-methyl-1H-benzimidazole]
203 °C | Cc1nc2c(NCc3c(C)cccc3C)cc(C(=O)N(C)C)cc2[nH]1 [Example 67, 6-(N,N-Dimethylaminocarbonyl)-4-(2,6-dimethyl-benzylamino)-2-methyl-1H-benzimidazole]
197 to 198 °C | Cc1cccc(CO)c1CNc1cc(C(=O)N(C)C)cc2c1nc(C)n2C [Example 70, 6-(N,N-Dimethylaminocarbonyl)-4-(2-hydroxymethyl-6-methyl-benzylamino)-1,2-dimethyl-1H-benzimidazole]
277 °C | Cc1cccc(C)c1CNc1cc(Br)cc2c1nc(C)n2O [Example 76, 6-Bromo-4-(2,6-dimethyl-benzylamino)-1-hydroxy-2-methyl-1H-benzimidazole]
171 to 172 °C | COn1c(C)nc2c(NCc3c(C)cccc3C)cc(Br)cc21 [Example 77, 6-Bromo-4-(2,6-dimethyl-benzylamino)-1-methoxy-2-methyl-1H-benzimidazole]
165 to 166 °C | CCOC(=O)c1cc(NCc2c(C)cccc2C)c2nc(C)n(OC)c2c1 [Example 78, Ethyl 4-(2,6-dimethyl-benzylamino)-1-methoxy-2-methyl-1H-benzimidazole-6-carboxylate]
248 to 249 °C | COn1c(C)nc2c(NCc3c(C)cccc3C)cc(C(=O)O)cc21 [Example 79, 4-(2,6-Dimethyl-benzylamino)-1-methoxy-2-methyl-1H-benzimidazole-6-carboxylic acid]
128 to 129 °C | COn1c(C)nc2c(NCc3c(C)cccc3C)cc(C(=O)N(C)C)cc21 [Example 80, 6-(N,N-Dimethylamino-carbonyl)-4-(2,6-dimethyl-benzylamino)-1-methoxy-2-methyl-1H-benzimidazole]
171 to 172 °C | Cc1cccc(C)c1CNc1cc(C(=O)N(C)C)cc2c1nc(CO)n2C [Example 82, 6-(N,N-Dimethylaminocarbonyl)-4-(2,6-dimethyl-benzylamino)-2-hydroxymethyl-1-methyl-1H-benzimidazole]
138 to 141 °C | CCc1cccc(C)c1CNc1cc(C(=O)N(C)C)cc2c1nc(CO)n2C [Example 83, 6-(N,N-Dimethylaminocarbonyl)-4-(2-ethyl-6-methyl-benzylamino)-2-hydroxymethyl-1-methyl-1H-benzimidazole]
